Experiments:
[1] = target: Calcium/calmodulin-dependent protein kinase kinase 2 (Homo sapiens) (UniProt Q96RR4); settings: Compound concentration 1000.0 nM
[2] = target: Tyrosine-protein kinase receptor TYRO3 (Homo sapiens) (UniProt Q06418); settings: Compound concentration 1000.0 nM
[3] = target: Serine/threonine-protein kinase Sgk3 (Homo sapiens) (UniProt Q96BR1); settings: Compound concentration 1000.0 nM
[4] = target: Serine/threonine-protein kinase mTOR (Homo sapiens) (UniProt P42345); settings: Compound concentration 1000.0 nM
[5] = target: Ephrin type-B receptor 3 (Homo sapiens) (UniProt P54753); settings: Compound concentration 1000.0 nM
[6] = target: Mitogen-activated protein kinase 10 (Homo sapiens) (UniProt P53779); settings: Compound concentration 1000.0 nM
[7] = target: Phosphatidylinositol 3-kinase catalytic subunit type 3 (Homo sapiens) (UniProt Q8NEB9); settings: Compound concentration 1000.0 nM
[8] = target: Cyclin-dependent kinase 14 (Homo sapiens) (UniProt O94921); settings: Compound concentration 1000.0 nM
[9] = target: Cyclin-dependent kinase 7 (Homo sapiens) (UniProt P50613); settings: Compound concentration 1000.0 nM
[10] = target: Serine/threonine-protein kinase pim-2 (Homo sapiens) (UniProt Q9P1W9); settings: Compound concentration 1000.0 nM
[11] = target: Serine/threonine-protein kinase Nek11 (Homo sapiens) (UniProt Q8NG66); settings: Compound concentration 1000.0 nM
[12] = target: Mitogen-activated protein kinase kinase kinase 4 (Homo sapiens) (UniProt Q9Y6R4); settings: Compound concentration 1000.0 nM
[13] = target: Calcium-dependent protein kinase 1 (Plasmodium falciparum) (UniProt P62344); settings: Compound concentration 1000.0 nM
[14] = target: Eukaryotic translation initiation factor 2-alpha kinase 1 (Homo sapiens) (UniProt Q9BQI3); settings: Compound concentration 1000.0 nM
[15] = target: Mitogen-activated protein kinase kinase kinase 3 (Homo sapiens) (UniProt Q99759); settings: Compound concentration 1000.0 nM
[16] = target: Tyrosine-protein kinase SYK (Homo sapiens) (UniProt P43405); settings: Compound concentration 1000.0 nM
[17] = target: Calcium/calmodulin-dependent protein kinase kinase 1 (Homo sapiens) (UniProt Q8N5S9); settings: Compound concentration 1000.0 nM
[18] = tested on: Serine/threonine-protein kinase B-raf (Homo sapiens), P15056 [V600E]; settings: Compound concentration 1000.0 nM
[19] = target: 5-hydroxytryptamine receptor 3A (Homo sapiens) (UniProt P46098); settings: Compound concentration 10.0 uM
[20] = target: Protein kinase C epsilon type (Homo sapiens) (UniProt Q02156); settings: Compound concentration 1000.0 nM
[21] = target: Serine/threonine-protein kinase SIK1 (Homo sapiens) (UniProt P57059); settings: Compound concentration 1000.0 nM
[22] = target: Serine/threonine-protein kinase 38 (Homo sapiens) (UniProt Q15208); settings: Compound concentration 1000.0 nM
[23] = tested on: Mast/stem cell growth factor receptor Kit (Homo sapiens), P10721 [D816V]; settings: Compound concentration 1000.0 nM
[24] = target: Homeodomain-interacting protein kinase 1 (Homo sapiens) (UniProt Q86Z02); settings: Compound concentration 1000.0 nM
[25] = target: Tyrosine-protein kinase HCK (Homo sapiens) (UniProt P08631); settings: Compound concentration 1000.0 nM
[26] = target: Tyrosine-protein kinase TXK (Homo sapiens) (UniProt P42681); settings: Compound concentration 1000.0 nM
[27] = target: Dual specificity tyrosine-phosphorylation-regulated kinase 1A (Homo sapiens) (UniProt Q13627); settings: Compound concentration 1000.0 nM
[28] = tested on: Receptor-type tyrosine-protein kinase FLT3 (Homo sapiens), P36888 [R834Q]; settings: Compound concentration 1000.0 nM
[29] = target: Serine/threonine-protein kinase MRCK alpha (Homo sapiens) (UniProt Q5VT25); settings: Compound concentration 1000.0 nM
[30] = target: Casein kinase I isoform alpha-like (Homo sapiens) (UniProt Q8N752); settings: Compound concentration 1000.0 nM
[31] = target: Mitogen-activated protein kinase kinase kinase kinase 4 (Homo sapiens) (UniProt O95819); settings: Compound concentration 1000.0 nM
[32] = target: Fibroblast growth factor receptor 2 (Homo sapiens) (UniProt P21802); settings: Compound concentration 1000.0 nM
[33] = tested on: Phosphatidylinositol 4,5-bisphosphate 3-kinase catalytic subunit alpha isoform (Homo sapiens), P42336 [H1047L]; settings: Compound concentration 1000.0 nM
[34] = target: Cyclin-dependent kinase 9 (Homo sapiens) (UniProt P50750); settings: Compound concentration 1000.0 nM
[35] = target: Dual specificity mitogen-activated protein kinase kinase 1 (Homo sapiens) (UniProt Q02750); settings: Compound concentration 1000.0 nM
[36] = tested on: Epidermal growth factor receptor (Homo sapiens), P00533 [G719C]; settings: Compound concentration 1000.0 nM
[37] = target: Microtubule-associated serine/threonine-protein kinase 1 (Homo sapiens) (UniProt Q9Y2H9); settings: Compound concentration 1000.0 nM
[38] = tested on: Phosphatidylinositol 4,5-bisphosphate 3-kinase catalytic subunit alpha isoform (Homo sapiens), P42336 [H1047Y]; settings: Compound concentration 1000.0 nM
[39] = target: Serine/threonine-protein kinase pim-1 (Homo sapiens) (UniProt P11309); settings: Compound concentration 1000.0 nM
[40] = target: Glycogen synthase kinase-3 alpha (Homo sapiens) (UniProt P49840); settings: Compound concentration 1000.0 nM
[41] = tested on: Epidermal growth factor receptor (Homo sapiens), P00533 [T790M]; settings: Compound concentration 1000.0 nM
[42] = target: MAP kinase-interacting serine/threonine-protein kinase 2 (Homo sapiens) (UniProt Q9HBH9); settings: Compound concentration 1000.0 nM
[43] = tested on: Tyrosine-protein kinase ABL1 (Homo sapiens), P00519 [F317L]; settings: Compound concentration 1000.0 nM
[44] = target: Hormonally up-regulated neu tumor-associated kinase (Homo sapiens) (UniProt P57058); settings: Compound concentration 1000.0 nM
[45] = target: Casein kinase I isoform gamma-1 (Homo sapiens) (UniProt Q9HCP0); settings: Compound concentration 1000.0 nM

Sequence of Serine/threonine-protein kinase Nek11 (Homo sapiens) (Q8NG66 whole entry): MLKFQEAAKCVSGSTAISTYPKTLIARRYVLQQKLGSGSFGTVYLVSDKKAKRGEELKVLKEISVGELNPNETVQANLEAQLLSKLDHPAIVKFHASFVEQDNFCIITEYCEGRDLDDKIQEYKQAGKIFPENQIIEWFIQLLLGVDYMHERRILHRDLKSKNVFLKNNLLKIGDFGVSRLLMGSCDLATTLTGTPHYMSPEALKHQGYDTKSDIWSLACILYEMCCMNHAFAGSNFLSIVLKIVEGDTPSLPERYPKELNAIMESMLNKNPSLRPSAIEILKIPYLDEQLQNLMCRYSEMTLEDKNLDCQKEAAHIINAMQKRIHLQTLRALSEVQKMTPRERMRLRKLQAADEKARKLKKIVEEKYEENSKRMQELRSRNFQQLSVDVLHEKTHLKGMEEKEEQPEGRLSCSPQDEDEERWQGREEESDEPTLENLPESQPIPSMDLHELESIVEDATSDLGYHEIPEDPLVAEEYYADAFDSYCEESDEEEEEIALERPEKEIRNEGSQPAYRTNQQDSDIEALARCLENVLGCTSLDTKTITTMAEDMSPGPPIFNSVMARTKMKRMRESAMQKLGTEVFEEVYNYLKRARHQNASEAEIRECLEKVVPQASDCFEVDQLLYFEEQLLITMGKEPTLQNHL
Sequence of Phosphatidylinositol 4,5-bisphosphate 3-kinase catalytic subunit alpha isoform (Homo sapiens), P42336 [H1047L] (P42336 whole entry H1047L, canonical isoform): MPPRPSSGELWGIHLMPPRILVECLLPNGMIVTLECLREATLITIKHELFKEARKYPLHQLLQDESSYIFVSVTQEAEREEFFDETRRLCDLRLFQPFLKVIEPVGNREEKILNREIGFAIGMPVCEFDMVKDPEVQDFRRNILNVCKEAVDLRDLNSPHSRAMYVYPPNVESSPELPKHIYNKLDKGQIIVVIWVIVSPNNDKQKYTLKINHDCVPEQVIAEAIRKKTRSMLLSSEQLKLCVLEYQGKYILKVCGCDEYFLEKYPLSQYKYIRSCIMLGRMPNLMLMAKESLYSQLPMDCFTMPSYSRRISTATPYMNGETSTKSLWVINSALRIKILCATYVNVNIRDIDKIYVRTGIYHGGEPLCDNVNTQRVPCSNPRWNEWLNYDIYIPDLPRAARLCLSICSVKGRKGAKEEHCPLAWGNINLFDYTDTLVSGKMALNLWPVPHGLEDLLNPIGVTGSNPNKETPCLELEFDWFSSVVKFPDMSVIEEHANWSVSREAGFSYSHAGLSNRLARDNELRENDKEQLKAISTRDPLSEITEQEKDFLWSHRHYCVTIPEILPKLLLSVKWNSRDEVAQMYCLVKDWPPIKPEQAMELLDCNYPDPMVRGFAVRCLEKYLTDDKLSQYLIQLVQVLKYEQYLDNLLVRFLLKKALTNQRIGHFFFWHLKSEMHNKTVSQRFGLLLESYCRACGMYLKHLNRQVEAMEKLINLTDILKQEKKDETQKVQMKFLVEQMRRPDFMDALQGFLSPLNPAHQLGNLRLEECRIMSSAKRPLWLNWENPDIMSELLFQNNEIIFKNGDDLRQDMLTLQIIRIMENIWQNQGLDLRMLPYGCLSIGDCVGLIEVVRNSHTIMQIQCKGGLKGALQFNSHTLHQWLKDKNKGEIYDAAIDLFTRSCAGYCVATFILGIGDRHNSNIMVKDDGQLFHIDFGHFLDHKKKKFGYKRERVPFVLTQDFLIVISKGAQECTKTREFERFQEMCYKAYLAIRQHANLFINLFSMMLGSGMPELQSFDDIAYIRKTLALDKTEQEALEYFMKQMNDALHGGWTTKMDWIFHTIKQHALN
Sequence of Serine/threonine-protein kinase 38 (Homo sapiens) (Q15208 2-465 limits assumed): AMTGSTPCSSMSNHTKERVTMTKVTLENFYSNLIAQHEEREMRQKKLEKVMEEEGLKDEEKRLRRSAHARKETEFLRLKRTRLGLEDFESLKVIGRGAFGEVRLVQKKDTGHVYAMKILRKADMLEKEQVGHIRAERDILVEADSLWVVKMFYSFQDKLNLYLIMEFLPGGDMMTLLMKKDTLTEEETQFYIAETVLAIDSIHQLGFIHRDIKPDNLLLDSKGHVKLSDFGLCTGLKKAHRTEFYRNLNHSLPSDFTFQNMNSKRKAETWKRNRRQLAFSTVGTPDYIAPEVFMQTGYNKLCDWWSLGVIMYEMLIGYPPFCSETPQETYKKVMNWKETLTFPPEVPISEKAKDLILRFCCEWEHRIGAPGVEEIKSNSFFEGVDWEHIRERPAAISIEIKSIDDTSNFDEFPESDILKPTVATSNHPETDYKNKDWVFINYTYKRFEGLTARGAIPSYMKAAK
Sequence of Phosphatidylinositol 3-kinase catalytic subunit type 3 (Homo sapiens) (Q8NEB9 whole entry): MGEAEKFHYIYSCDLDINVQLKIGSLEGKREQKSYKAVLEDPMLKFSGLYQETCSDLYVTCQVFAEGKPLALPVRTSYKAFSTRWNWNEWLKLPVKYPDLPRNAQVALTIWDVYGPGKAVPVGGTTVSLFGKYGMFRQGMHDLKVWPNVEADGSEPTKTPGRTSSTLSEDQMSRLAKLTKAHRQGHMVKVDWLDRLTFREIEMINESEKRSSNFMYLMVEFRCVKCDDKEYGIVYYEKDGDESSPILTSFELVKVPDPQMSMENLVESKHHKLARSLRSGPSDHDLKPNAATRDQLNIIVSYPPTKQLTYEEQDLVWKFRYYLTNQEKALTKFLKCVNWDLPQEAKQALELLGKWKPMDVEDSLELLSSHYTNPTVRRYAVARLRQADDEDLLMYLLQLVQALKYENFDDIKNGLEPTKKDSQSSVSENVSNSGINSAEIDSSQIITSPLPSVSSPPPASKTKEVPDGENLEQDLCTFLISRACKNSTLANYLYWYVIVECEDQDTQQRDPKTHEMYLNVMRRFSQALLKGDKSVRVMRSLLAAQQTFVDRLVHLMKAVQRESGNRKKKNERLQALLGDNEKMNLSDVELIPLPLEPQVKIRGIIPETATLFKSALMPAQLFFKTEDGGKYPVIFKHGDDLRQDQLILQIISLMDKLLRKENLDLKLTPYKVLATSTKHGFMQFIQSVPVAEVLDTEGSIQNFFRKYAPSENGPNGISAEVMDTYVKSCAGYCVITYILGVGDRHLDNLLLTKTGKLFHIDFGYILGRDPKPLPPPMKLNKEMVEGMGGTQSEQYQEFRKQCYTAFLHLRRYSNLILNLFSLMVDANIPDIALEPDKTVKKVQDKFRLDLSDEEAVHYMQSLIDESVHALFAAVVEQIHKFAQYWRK
Sequence of Mitogen-activated protein kinase kinase kinase 4 (Homo sapiens) (Q9Y6R4 whole entry): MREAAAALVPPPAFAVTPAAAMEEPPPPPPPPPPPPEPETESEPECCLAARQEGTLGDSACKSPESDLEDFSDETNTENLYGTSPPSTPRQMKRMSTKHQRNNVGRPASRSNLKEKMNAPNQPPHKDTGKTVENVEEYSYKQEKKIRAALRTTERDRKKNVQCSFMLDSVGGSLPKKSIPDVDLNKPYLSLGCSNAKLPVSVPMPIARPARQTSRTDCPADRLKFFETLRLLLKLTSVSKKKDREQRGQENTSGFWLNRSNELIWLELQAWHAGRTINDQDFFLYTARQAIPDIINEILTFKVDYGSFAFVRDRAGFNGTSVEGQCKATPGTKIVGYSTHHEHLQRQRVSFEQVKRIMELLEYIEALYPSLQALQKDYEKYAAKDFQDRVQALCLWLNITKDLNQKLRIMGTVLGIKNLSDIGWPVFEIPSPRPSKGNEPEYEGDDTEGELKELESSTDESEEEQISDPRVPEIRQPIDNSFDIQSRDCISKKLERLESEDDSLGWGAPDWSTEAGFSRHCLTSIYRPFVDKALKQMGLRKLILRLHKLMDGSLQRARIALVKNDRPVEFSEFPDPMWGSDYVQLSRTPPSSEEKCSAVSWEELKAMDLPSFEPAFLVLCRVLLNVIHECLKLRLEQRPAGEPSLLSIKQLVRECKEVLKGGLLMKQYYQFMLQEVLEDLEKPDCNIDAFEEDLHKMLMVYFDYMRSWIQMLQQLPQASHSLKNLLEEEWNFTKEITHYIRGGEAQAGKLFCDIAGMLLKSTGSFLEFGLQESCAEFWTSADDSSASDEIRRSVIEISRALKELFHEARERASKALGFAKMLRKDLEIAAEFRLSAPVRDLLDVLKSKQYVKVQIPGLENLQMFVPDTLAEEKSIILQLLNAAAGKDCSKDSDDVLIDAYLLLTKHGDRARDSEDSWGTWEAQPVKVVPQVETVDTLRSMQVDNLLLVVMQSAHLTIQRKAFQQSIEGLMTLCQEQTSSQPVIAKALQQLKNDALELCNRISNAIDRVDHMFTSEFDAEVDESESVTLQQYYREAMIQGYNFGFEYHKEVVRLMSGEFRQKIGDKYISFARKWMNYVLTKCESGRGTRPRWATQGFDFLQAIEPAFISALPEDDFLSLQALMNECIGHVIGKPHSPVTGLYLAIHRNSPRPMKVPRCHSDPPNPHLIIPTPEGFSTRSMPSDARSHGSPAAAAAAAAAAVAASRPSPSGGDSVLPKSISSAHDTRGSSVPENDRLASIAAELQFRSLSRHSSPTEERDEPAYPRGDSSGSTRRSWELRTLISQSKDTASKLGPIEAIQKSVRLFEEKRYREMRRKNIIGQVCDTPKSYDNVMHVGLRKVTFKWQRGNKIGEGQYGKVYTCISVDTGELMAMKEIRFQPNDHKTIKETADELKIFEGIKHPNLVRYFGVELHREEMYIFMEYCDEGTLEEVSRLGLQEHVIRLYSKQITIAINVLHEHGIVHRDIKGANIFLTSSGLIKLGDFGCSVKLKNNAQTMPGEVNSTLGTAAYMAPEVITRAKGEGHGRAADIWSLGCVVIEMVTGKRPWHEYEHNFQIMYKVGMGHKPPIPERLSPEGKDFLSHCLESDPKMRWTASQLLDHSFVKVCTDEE
Sequence of Cyclin-dependent kinase 7 (Homo sapiens) (P50613 whole entry): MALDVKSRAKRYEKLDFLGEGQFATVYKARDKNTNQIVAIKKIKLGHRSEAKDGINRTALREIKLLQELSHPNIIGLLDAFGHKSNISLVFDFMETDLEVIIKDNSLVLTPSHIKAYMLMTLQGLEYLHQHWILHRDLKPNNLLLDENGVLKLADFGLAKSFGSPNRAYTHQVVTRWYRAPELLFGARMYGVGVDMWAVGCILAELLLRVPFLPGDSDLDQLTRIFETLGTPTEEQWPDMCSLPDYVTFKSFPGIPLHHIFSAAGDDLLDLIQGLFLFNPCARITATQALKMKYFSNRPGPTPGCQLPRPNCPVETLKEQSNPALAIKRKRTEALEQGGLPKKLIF

Cc1c(NC(=O)c2cc(C(N)=O)nc3cc(F)ccc23)c(C(F)(F)F)nn1Cc1ccc(C(C)(C)C)cc1 [BAY-588]
inactive: residual activity [1] 78% | residual activity [2] 100% | residual activity [3] 94% | residual activity [4] 86% | residual activity [5] 100% | residual activity [6] 100% | residual activity [7] 100% | residual activity [8] 94% | residual activity [9] 100% | residual activity [10] 100% | residual activity [11] 100% | residual activity [12] 100% | residual activity [13] 100% | residual activity [14] 100% | residual activity [15] 100% | residual activity [16] 90% | residual activity [17] 98% | residual activity [18] 98% | inhibition [19] 7.59% | residual activity [20] 67% | residual activity [21] 87% | residual activity [22] 93% | residual activity [23] 82% | residual activity [24] 92% | residual activity [25] 92% | residual activity [26] 100% | residual activity [27] 100% | residual activity [28] 100% | residual activity [29] 100% | residual activity [30] 93% | residual activity [31] 76% | residual activity [32] 100% | residual activity [33] 100% | residual activity [34] 100% | residual activity [35] 91% | residual activity [36] 71% | residual activity [37] 100% | residual activity [38] 89% | residual activity [39] 100% | residual activity [40] 98% | residual activity [41] 100% | residual activity [42] 100% | residual activity [43] 100% | residual activity [44] 100% | residual activity [45] 100%

Cc1c(NC(=O)c2cc(C(N)=O)nc3cc(F)ccc23)c(C(F)(F)F)nn1Cc1ccc(C#N)cc1 [BAY-876]
inactive: residual activity [1] 92% | residual activity [2] 81% | residual activity [3] 83% | residual activity [4] 93% | residual activity [5] 96% | residual activity [6] 85% | residual activity [7] 99% | residual activity [8] 100% | residual activity [9] 52% | residual activity [10] 94% | residual activity [11] 100% | residual activity [12] 97% | residual activity [13] 92% | residual activity [14] 100% | residual activity [15] 66% | residual activity [16] 95% | residual activity [17] 97% | residual activity [18] 90% | inhibition [19] -7.03% | residual activity [20] 74% | residual activity [21] 100% | residual activity [22] 94% | residual activity [23] 88% | residual activity [24] 73% | residual activity [25] 69% | residual activity [26] 99% | residual activity [27] 84% | residual activity [28] 83% | residual activity [29] 97% | residual activity [30] 100% | residual activity [31] 84% | residual activity [32] 88% | residual activity [33] 88% | residual activity [34] 86% | residual activity [35] 90% | residual activity [36] 83% | residual activity [37] 77% | residual activity [38] 86% | residual activity [39] 86% | residual activity [40] 100% | residual activity [41] 100% | residual activity [42] 92% | residual activity [43] 88% | residual activity [44] 77% | residual activity [45] 100%
